Values belong to the compound of their own block, whether it stands above or below them.
Molecular target: T1, Full-length glucokinase (beta cell isoform) (Homo sapiens, UniProt P35557)
T1 construct: Full-length glucokinase (beta cell isoform) was His-tagged at N-terminus; His tag (N); made in house
T1 sequence (P35557 1-465): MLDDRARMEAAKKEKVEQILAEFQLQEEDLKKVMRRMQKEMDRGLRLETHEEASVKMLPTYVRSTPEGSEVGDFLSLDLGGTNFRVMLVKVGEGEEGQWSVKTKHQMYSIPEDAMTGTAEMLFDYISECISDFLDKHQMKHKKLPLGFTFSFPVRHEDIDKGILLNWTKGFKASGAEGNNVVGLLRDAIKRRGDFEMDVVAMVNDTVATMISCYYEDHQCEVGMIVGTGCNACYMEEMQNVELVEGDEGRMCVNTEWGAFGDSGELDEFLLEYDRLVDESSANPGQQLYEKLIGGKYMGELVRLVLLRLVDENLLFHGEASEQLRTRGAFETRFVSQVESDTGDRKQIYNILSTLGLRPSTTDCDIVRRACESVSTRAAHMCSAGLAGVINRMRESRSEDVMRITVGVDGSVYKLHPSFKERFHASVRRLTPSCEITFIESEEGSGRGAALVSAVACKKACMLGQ
Test: Glucokinase biochemical assay (PK/LDH-coupled, NADH depletion at 340 nm): % activation, EC50, % max activation
Settings: 5 mM glucose; for activation at 10 µM: 10 uM compound, % Activation=(Va/Vo−1)×100, read-out: % Activation at 10 uM; for EC50: GK activation, read-out: EC50; for Emax: fitted maximum activation, read-out: % Max Activation
How it was run: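 N-terminally His-tagged full-length human beta-cell glucokinase, room temperature, 5 mM glucose, 1 mM ATP, PK/LDH-coupled with 0.7 mM NADH, 1% DMSO final. Initial velocity from the 200–900 s slope of A340 decline. % activation = (Va/Vo−1)×100, measured across compound concentrations.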

Compound: Cc1cc2c(Oc3ccc(S(=O)(=O)N(C)C)c(F)c3)cc(C(=O)Nc3ccn(C)n3)cc2o1 [Example 305, 4-{4-[(Dimethylamino)sulfonyl]-3-fluorophenoxy}-2-methyl-N-(1-methyl-1H-pyrazol-3-yl)-1-benzofuran-6-carboxamide]
- activation at 10 µM: 166%
- EC50: 140 nM
- Emax: 168%

Compound: Cc1cc2c(Oc3ccc(S(=O)(=O)N(C)C)c(F)c3)cc(C(=O)Nc3cnn(C)n3)cc2o1 [Example 306, 4-{4-[(Dimethylamino)sulfonyl]-3-fluorophenoxy}-2-methyl-N-(2-methyl-2H-1,2,3-triazol-4-yl)-1-benzofuran-6-carboxamide]
- activation at 10 µM: 185%
- EC50: 330 nM
- Emax: 186%

Compound: COc1cnc(NC(=O)c2cc(Oc3ccc(S(=O)(=O)N(C)C)c(F)c3)c3cc(C)oc3c2)cn1 [Example 307, 4-{4-[(Dimethylamino)sulfonyl]-3-fluorophenoxy}-N-(5-methoxypyrazin-2-yl)-2-methyl-1-benzofuran-6-carboxamide]
- activation at 10 µM: 153%
- EC50: 400 nM
- Emax: 156%

Compound: Cc1cc2c(Oc3ccc(S(=O)(=O)N(C)C)c(F)c3)cc(C(=O)Nc3cnc(N(C)C)cn3)cc2o1 [Example 308, N-[5-(Dimethylamino)pyrazin-2-yl]-4-{4-[(dimethylamino)-sulfonyl]-3-fluorophenoxy}-2-methyl-1-benzofuran-6-carboxamide]
- activation at 10 µM: 141%
- EC50: 110 nM
- Emax: 131%

Compound: COCc1cc2c(Oc3ccc(S(C)(=O)=O)cc3)cc(C(=O)Nc3ccn(C)n3)cc2o1 [Example 310, 2-(Methoxymethyl)-N-(1-methyl-1H-pyrazol-3-yl)-4-[4-(methylsulfonyl)-phenoxy]-1-benzofuran-6-carboxamide]
- activation at 10 µM: 118%
- EC50: 730 nM
- Emax: 137%

Compound: COCc1cc2c(Oc3ccc(S(C)(=O)=O)cc3)cc(C(=O)Nc3cnn(C)n3)cc2o1 [Example 313, 2-(Methoxymethyl)-4-[4-(methylsulfonyl)phenoxy]-N-(2-methyl-2H-1,2,3-triazol-4-yl)-1-benzofuran-6-carboxamide]
- activation at 10 µM: 131%
- EC50: 920 nM
- Emax: 155%

Compound: COCc1cc2c(Oc3ccc(S(C)(=O)=O)cc3)cc(C(=O)Nc3cc(C)on3)cc2o1 [Example 315, 2-(Methoxymethyl)-N-(5-methylisoxazol-3-yl)-4-[4-(methylsulfonyl)phenoxy]-1-benzofuran-6-carboxamide]
- activation at 10 µM: 11.9%

Compound: Cn1ccc(NC(=O)c2cc(Oc3ccc(S(C)(=O)=O)cc3)c3cc(CO)oc3c2)n1 [Example 317, 2-(Hydroxymethyl)-N-(1-methyl-1H-pyrazol-3-yl)-4-[4-(methylsulfonyl)-phenoxy]-1-benzofuran-6-carboxamide]
- activation at 10 µM: 186%
- EC50: 1700 nM
- Emax: 228%

Compound: Cn1ccc(NC(=O)c2cc(Oc3ccc(S(C)(=O)=O)cc3)c3cc(CN4CCCC4=O)oc3c2)n1 [Example 318, N-(1-Methyl-1H-pyrazol-3-yl)-4-[4-(methylsulfonyl)phenoxy]-2-[(2-oxopyrrolidin-1-yl)methyl]-1-benzofuran-6-carboxamide]
- activation at 10 µM: 91.3%
- EC50: > 10000 nM

Compound: Cn1ccc(NC(=O)c2cc(Oc3ccc(S(C)(=O)=O)cc3)c3cc(C(F)F)oc3c2)n1 [Example 322, 2-(Difluoromethyl)-N-(1-methyl-1H-pyrazol-3-yl)-4-[4-(methylsulfonyl)-phenoxy]-1-benzofuran-6-carboxamide]
- activation at 10 µM: 161%
- EC50: 6300 nM
- Emax: 235%

Compound: Cc1ccc(NC(=O)c2cc(Oc3ccc(C(F)F)cc3)c3cc(C(=O)N(C)C)oc3c2)nc1 [Example 323, 4-[4-(Difluoromethyl)phenoxy]-N^2,N^2-dimethyl-N^6-(5-methylpyridin-2-yl)-1-benzofuran-2,6-dicarboxamide]
- activation at 10 µM: 78%
- EC50: 3700 nM
- Emax: 83%

Compound: Cc1ccc(NC(=O)c2cc(OC3CN(C(=O)N(C)C)C3)c3cc(C)oc3c2)nc1 [Example 324, N,N-Dimethyl-3-[(2-methyl-6-{[(5-methylpyridin-2-yl)amino]-carbonyl}-1-benzofuran-4-yl)oxy]azetidine-1-carboxamide]
- activation at 10 µM: 18.2%

Compound: Cc1cc2c(OC3CN(S(C)(=O)=O)C3)cc(C(=O)Nc3cnn(C)n3)cc2o1 [Example 325, 2-Methyl-4-{[1-(methylsulfonyl)azetidin-3-yl]oxy}-N-(2-methyl-2H-1,2,3-triazol-4-yl)-1-benzofuran-6-carboxamide]
- activation at 10 µM: 137%
- EC50: > 10000 nM

Continued, values first:

- activation at 10 µM: 72.3%
- EC50: 230 nM
- Emax: 81%
Compound: COCc1cc2c(Oc3ccc(S(C)(=O)=O)cc3)cc(C(=O)Nc3ccc(C)cn3)cc2o1 [Example 309, 2-(Methoxymethyl)-N-(5-methylpyridin-2-yl)-4-[4-(methylsulfonyl)-phenoxy]-1-benzofuran-6-carboxamide]

- activation at 10 µM: 106%
- EC50: 380 nM
- Emax: 114%
Compound: COCc1cc2c(Oc3ccc(S(C)(=O)=O)cc3)cc(C(=O)Nc3cnc(N(C)C)cn3)cc2o1 [Example 311, N-[5-(Dimethylamino)pyrazin-2-yl]-2-(methoxymethyl)-4-[4-(methylsulfonyl)-phenoxy]-1-benzofuran-6-carboxamide]

- activation at 10 µM: 112%
- EC50: 490 nM
- Emax: 121%
Compound: COCc1cc2c(Oc3ccc(S(C)(=O)=O)cc3)cc(C(=O)Nc3cnc(OC)cn3)cc2o1 [Example 312, 2-(Methoxymethyl)-N-(5-methoxypyrazin-2-yl)-4-[4-(methylsulfonyl)phenoxy]-1-benzofuran-6-carboxamide]

- activation at 10 µM: 47.3%
- EC50: 330 nM
- Emax: 46%
Compound: COCc1cc2c(Oc3ccc(S(C)(=O)=O)cc3)cc(C(=O)Nc3cc(OC)ccn3)cc2o1 [Example 314, 2-(Methoxymethyl)-N-(4-methoxypyridin-2-yl)-4-[4-(methylsulfonyl)phenoxy]-1-benzofuran-6-carboxamide]

- activation at 10 µM: 73.7%
- EC50: 410 nM
- Emax: 78%
Compound: Cc1ccc(NC(=O)c2cc(Oc3ccc(S(C)(=O)=O)cc3)c3cc(CO)oc3c2)nc1 [Example 316, 2-(Hydroxymethyl)-N-(5-methylpyridin-2-yl)-4-(4-(methylsulfonyl)-phenoxy)benzofuran-6-carboxamide]

- activation at 10 µM: 59.7%
- EC50: 5000 nM
- Emax: 90%
Compound: Cc1ccc(NC(=O)c2cc(Oc3ccc(S(C)(=O)=O)cc3)c3cc(CN(C)C)oc3c2)nc1 [Example 319, 2-[(Dimethylamino)methyl]-N-(5-methylpyridin-2-yl)-4-[4-(methylsulfonyl)-phenoxy]-1-benzofuran-6-carboxamide]

- activation at 10 µM: 39.2%
- EC50: 2500 nM
- Emax: 41%
Compound: Cc1ccc(NC(=O)c2cc(Oc3ccc(S(C)(=O)=O)cc3)c3cc(Cn4ccnc4C)oc3c2)nc1 [Example 320, 2-[(2-Methyl-1H-imidazol-1-yl)methyl]-N-(5-methylpyridin-2-yl)-4-[4-(methylsulfonyl)phenoxy]-1-benzofuran-6-carboxamide]

- activation at 10 µM: 100%
- EC50: 4300 nM
- Emax: 132%
Compound: Cc1ccc(NC(=O)c2cc(Oc3ccc(S(C)(=O)=O)cc3)c3cc(C(F)F)oc3c2)nc1 [Example 321, 2-(Difluoromethyl)-N-(5-methylpyridin-2-yl)-4-[4-(methylsulfonyl)-phenoxy]-1-benzofuran-6-carboxamide]

Reference: patent US8119624B2, “Fused phenyl amido heterocyclic compounds” (Pfizer Inc., priority 2006, dated 2012)
